Measurements: patent publication US20250249012A1, “COMPOSITIONS AND METHODS FOR TREATING AND/OR PREVENTING A VIRAL INFECTION” (priority 2022, published 2025)
Counter-ions that a name gives are not always drawn.

Test system: SARS-CoV-2 beta variant
Test: […]; lung PCR and histopathology
Assay type: in vivo, BALB C mice

Compound	antiviral effect upon sole administration (Nafamostat mesylate alone)	antiviral effect of single drug (mouse, in vivo)	reduction of infection (PCR) by single drug (mouse, in vivo)	antiviral effect upon sole administration (Apilimod dimesylate alone)
N=C(N)c1ccc2cc(OC(=O)c3ccc(N=C(N)N)cc3)ccc2c1 [Nafamostat mesylate]	partial antiviral inhibitory effect	no effect	5-10 fold	
N-[(E)-(3-methylphenyl)methylidencamino]-6-morpholin-4-yl-2-(2-pyridin-2-ylethoxy)pyrimidin-4-amine [Apilimod dimesylate]		no antiviral effect		lack of antiviral effect
